Assay results as given in patent publication US20250170248A1, “SMARCA DEGRADERS AND USES THEREOF” (Kymera Therapeutics, Inc., priority 2021, published 2025).

Tests used:
Format in all cases: cell-based
SMARCA2 [1] = biological target: T1, SMARCA2 (Homo sapiens, UniProt P51531); test: MSD SMARCA2 degradation in A549 cell line; settings: 24 h; for Dmax: A549, A549 cells; for DC50: A549 cells, read-out: SMARCA2 MSD A549 degradation 24 h: Average external-Abs DC50
Method in brief: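 A549 cells treated 24 h with compound, 3-fold series from 1000 nM. Lysates captured on MSD plates and SMARCA2 quantified with anti-SMARCA2 and SULFO-TAG secondary antibodies (electrochemiluminescence). DC50 and Dmax (% degradation at 24 h) reported as letter bins.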

SMARCA4 = biological target: T2, SMARCA4 (Homo sapiens, UniProt P51532); test: SMARCA4 Western blot degradation in MV4-11 cells; settings: 24 h; for Dmax: MV4-11, MV4-11 cells, read-out: SMARCA4 MSD MV411 degradation 24 h: average Dmax %; for DC50: MV4-11 cells, read-out: SMARCA4 MSD MV411 degradation 24 h: Mean external-Abs DC50
T2 construct: SMARCA2/SMARCA4 protein degradation selectivity in MV4-11 cells; endogenous in cells; host or cells: MV4-11
T2 sequence (P51532 whole entry): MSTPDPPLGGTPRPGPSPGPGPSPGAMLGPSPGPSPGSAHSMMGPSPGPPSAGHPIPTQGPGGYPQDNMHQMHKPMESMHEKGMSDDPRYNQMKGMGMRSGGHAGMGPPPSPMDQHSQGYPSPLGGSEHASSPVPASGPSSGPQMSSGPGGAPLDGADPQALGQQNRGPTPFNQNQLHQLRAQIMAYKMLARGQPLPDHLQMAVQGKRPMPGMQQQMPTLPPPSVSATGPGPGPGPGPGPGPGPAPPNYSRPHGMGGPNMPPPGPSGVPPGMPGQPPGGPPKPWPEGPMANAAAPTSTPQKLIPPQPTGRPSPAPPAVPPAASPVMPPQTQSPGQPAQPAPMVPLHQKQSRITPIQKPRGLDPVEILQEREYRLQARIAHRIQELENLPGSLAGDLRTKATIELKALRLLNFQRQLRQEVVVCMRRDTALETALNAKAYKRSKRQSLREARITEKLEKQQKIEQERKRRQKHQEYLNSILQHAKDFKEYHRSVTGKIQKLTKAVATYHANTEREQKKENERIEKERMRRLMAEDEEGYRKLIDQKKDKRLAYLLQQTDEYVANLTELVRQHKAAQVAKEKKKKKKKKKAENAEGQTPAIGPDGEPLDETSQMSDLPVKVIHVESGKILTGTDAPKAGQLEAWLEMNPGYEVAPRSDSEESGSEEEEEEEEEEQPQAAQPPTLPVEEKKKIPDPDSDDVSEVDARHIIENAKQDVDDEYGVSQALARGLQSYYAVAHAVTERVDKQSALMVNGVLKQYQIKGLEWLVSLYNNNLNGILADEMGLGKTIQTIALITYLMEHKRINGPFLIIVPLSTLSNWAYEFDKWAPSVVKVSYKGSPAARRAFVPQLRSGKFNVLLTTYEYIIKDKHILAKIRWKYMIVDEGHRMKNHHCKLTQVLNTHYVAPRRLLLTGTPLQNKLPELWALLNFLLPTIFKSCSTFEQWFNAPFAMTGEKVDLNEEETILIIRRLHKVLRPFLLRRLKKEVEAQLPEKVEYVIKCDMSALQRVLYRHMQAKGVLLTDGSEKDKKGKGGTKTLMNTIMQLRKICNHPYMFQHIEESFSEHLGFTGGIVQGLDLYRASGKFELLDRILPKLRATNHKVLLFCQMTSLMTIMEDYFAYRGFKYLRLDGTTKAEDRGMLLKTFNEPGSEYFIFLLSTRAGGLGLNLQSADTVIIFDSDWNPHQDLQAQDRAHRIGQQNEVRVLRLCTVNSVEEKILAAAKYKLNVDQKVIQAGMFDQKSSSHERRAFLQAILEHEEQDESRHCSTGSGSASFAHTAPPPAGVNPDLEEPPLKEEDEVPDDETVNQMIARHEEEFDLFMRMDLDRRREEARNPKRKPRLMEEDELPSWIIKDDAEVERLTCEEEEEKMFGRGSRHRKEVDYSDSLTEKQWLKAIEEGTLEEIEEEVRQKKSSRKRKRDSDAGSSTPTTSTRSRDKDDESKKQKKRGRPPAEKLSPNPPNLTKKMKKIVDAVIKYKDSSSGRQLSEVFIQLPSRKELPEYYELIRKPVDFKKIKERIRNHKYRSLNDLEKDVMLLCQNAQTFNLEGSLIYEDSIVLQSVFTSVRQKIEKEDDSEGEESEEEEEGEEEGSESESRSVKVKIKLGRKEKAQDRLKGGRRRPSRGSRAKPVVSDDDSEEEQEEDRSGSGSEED
Method in brief: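 24 h compound exposure, MV4-11; RIPA lysates → SDS-PAGE → NC membrane; anti-SMARCA2/BRM, anti-BRG1, β-actin loading control; LI-COR fluorescence read. DC50 and Dmax at 24 h reported as letter bins.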

SMARCA2 [2] = biological target: T1, SMARCA2; test: SMARCA2 Western blot degradation in MV4-11 cells; set-up: SMARCA2/SMARCA4 protein degradation selectivity in MV4-11 cells; endogenous in cells; host or cells: MV4-11; settings: for Dmax: MV4-11, MV4-11 cells, read-out: SMARCA2 MSD MV411 degradation 24 h: average Dmax %; for Dmax / DC50: 24 h; for DC50 / Selectivity in MV411: MV4-11 cells; for DC50: read-out: SMARCA2 MSD MV411 degradation 24 h: Mean external-Abs DC50; for Selectivity in MV411: SMARCA2/4 selectivity

T1 sequence (P51531 whole entry): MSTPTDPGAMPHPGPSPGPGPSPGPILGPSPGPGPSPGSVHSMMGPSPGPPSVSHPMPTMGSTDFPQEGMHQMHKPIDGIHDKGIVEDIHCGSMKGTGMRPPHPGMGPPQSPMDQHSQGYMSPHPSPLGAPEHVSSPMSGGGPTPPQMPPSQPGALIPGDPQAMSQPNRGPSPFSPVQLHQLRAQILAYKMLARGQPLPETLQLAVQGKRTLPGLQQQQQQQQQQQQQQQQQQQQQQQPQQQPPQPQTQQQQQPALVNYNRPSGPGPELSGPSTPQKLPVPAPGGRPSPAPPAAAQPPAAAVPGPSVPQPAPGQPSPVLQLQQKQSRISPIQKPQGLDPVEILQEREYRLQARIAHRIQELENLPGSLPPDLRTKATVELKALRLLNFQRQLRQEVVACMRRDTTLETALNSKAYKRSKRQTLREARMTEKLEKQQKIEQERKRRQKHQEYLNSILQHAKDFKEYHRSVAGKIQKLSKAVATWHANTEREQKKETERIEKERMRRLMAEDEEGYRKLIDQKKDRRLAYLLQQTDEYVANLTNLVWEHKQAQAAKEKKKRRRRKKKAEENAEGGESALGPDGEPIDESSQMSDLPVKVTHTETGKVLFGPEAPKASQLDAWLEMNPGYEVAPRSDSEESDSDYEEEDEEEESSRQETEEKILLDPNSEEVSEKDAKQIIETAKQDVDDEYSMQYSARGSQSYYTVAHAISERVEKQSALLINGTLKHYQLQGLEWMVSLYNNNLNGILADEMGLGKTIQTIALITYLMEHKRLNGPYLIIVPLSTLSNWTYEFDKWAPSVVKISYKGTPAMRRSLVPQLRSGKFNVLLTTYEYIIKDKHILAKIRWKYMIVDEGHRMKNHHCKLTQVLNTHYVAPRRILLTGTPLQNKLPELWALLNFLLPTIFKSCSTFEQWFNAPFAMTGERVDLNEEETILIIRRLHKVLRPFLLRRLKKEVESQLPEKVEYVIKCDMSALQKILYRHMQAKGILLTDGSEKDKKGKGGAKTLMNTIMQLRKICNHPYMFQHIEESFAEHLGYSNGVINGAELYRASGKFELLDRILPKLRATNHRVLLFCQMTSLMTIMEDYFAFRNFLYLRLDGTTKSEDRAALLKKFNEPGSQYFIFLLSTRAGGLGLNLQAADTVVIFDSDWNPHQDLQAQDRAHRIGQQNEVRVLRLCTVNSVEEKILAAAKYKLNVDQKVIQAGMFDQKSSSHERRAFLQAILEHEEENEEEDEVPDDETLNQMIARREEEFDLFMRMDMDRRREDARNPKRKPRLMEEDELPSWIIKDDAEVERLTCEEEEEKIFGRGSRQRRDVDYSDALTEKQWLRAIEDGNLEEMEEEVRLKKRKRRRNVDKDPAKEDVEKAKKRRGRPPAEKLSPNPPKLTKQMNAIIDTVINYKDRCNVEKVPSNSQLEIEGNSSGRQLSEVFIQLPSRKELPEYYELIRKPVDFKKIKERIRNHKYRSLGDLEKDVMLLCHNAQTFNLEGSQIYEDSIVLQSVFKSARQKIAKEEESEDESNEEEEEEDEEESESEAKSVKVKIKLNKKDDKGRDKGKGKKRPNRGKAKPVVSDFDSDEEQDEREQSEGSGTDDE

SMILES	Dmax (SMARCA2 [1])	DC50 (SMARCA2 [1])	Dmax (SMARCA4)	DC50 (SMARCA4)	Dmax (SMARCA2 [2])	DC50 (SMARCA2 [2])	Selectivity in MV411 (SMARCA2 [2])
C#Cc1ccc([C@H](C)NC(=O)[C@@H]2C[C@@H](O)CN2C(=O)C(c2cc(N3CC4(CC(N5CCC(N6CCC(N7CCN8c9cc(-c%10ccccc%10O)nnc9NC[C@H]8C7)CC6)CC5)C4)C3)no2)C(C)C)cc1 (stereo partly drawn) [I-332]	> 90%	< 10 nM	> 90%	1 to 10 nM	> 90%	< 1 nM	C (C (10-100 fold))
C#Cc1ccc(CNC(=O)[C@@H]2C[C@@H](O)CN2C(=O)[C@@H](NC(=O)N2CC3(CC(N4CCC(c5cnc(N6CCc7[nH]c8nnc(-c9ccccc9O)cc8c7[C@@H]6C)s5)CC4)C3)C2)C(C)(C)C)cc1 [I-335]	70 to 90%	> 100 nM	70 to 90%	> 100 nM	50 to 70%	10 to 100 nM	D (D (<10 fold))
C#Cc1ccc(CNC(=O)[C@@H]2C[C@@H](O)CN2C(=O)[C@H](NC(=O)N2CC3(CC(N4CCC(c5cnc(N6CCc7[nH]c8nnc(-c9ccccc9O)cc8c7[C@H]6C)nc5)CC4)C3)C2)C(C)(C)CCN2CCNCC2)cc1 [I-339]	< 50%	> 100 nM	< 50%	> 100 nM	< 50%	> 100 nM	C (C (10-100 fold))
C#Cc1ccc(CNC(=O)[C@@H]2C[C@@H](O)CN2C(=O)[C@@H](NC(=O)N2CC3(CC(N4CCC(c5cnc(N6CCc7[nH]c8nnc(-c9ccccc9O)cc8c7[C@H]6C)nc5)CC4)C3)C2)C(C)(C)CCN2CCNCC2)cc1 [I-340]	50 to 70%	> 100 nM	< 50%	> 100 nM	< 50%	> 100 nM	C (C (10-100 fold))
C#Cc1ccc(CNC(=O)[C@@H]2C[C@@H](O)CN2C(=O)[C@H](NC(=O)N2CC3(CC(N4CCC(c5cnc(N6CCc7[nH]c8nnc(-c9ccccc9O)cc8c7[C@H]6C)nc5)CC4)C3)C2)C(C)(C)CCN2CCN[C@@H](C(=O)O)C2)cc1 [I-341]	< 50%	> 100 nM	< 50%	> 100 nM	< 50%	> 100 nM	C (C (10-100 fold))
C#Cc1ccc(CNC(=O)[C@@H]2C[C@@H](O)CN2C(=O)[C@@H](NC(=O)N2CC3(CC(N4CCC(c5cnc(N6CCc7[nH]c8nnc(-c9ccccc9O)cc8c7[C@H]6C)nc5)CC4)C3)C2)C(C)(C)CCN2CCN[C@@H](C(=O)O)C2)cc1 [I-342]	< 50%	> 100 nM	< 50%	> 100 nM	< 50%	> 100 nM	C (C (10-100 fold))
C#Cc1ccc(CNC(=O)[C@@H]2C[C@@H](O)CN2C(=O)[C@H](NC(=O)N2CC3(CC(N4CCC(c5cnc(N6CCc7[nH]c8nnc(-c9ccccc9O)cc8c7[C@H]6C)nc5)CC4)C3)C2)C(C)(C)CCN2CCN[C@H](C(=O)O)C2)cc1 [I-343]	< 50%	> 100 nM	< 50%	> 100 nM	< 50%	> 100 nM	C (C (10-100 fold))
C#Cc1ccc(CNC(=O)[C@@H]2C[C@@H](O)CN2C(=O)[C@@H](NC(=O)N2CC3(CC(N4CCC(c5cnc(N6CCc7[nH]c8nnc(-c9ccccc9O)cc8c7[C@H]6C)nc5)CC4)C3)C2)C(C)(C)CCN2CCN[C@H](C(=O)O)C2)cc1 [I-344]	< 50%	> 100 nM	< 50%	> 100 nM	< 50%	> 100 nM	C (C (10-100 fold))
C#Cc1ccc([C@H](C)NC(=O)[C@@H]2C[C@@H](O)CN2C(=O)[C@@H](NC(=O)[C@H]2CC3(C2)C[C@H](c2cnc(N4CCC(N5CCN6c7cc(-c8ccccc8O)nnc7NC[C@H]6C5)CC4)nc2)C3)C(C)(C)C)cc1 (stereo partly drawn) [I-362]	> 90%	10 to 50 nM	70 to 90%	> 100 nM	70 to 90%	1 to 10 nM	C (C (10-100 fold))
C#Cc1ccc([C@H](C)NC(=O)[C@@H]2C[C@@H](O)CN2C(=O)[C@@H](NC(=O)[C@H]2CC3(C2)C[C@H](c2cnc(N4CCC(N5CCN6c7cc(-c8ccccc8O)nnc7NC[C@H]6C5)CC4)nc2)C3)C(C)(C)C)cc1 (stereo partly drawn) [I-363]	–	10 to 50 nM	–	> 100 nM	–	1 to 10 nM	C (C (10-100 fold))
C#Cc1ccc([C@H](C)NC(=O)[C@@H]2C[C@@H](O)CN2C(=O)[C@@H](NC(=O)N2CC3(CC(N4CCN(c5cnc(N6CCc7[nH]c8nnc(-c9ccccc9O)cc8c7[C@H]6C)nc5)CC4)C3)C2)C(C)(C)CCO)cc1 [I-369]	> 90%	< 10 nM	70 to 90%	> 100 nM	> 90%	1 to 10 nM	C (C (10-100 fold))
C#Cc1c(F)cc(CNC(=O)[C@@H]2C[C@@H](O)CN2C(=O)[C@@H](NC(=O)N2CC3(CC(N4CCC(c5cnc(N6CCc7[nH]c8nnc(-c9ccccc9O)cc8c7[C@H]6C)nc5)CC4)C3)C2)C(C)(C)C)cc1F [I-402]	> 90%	10 to 50 nM	> 90%	> 100 nM	70 to 90%	1 to 10 nM	C (C (10-100 fold))
C#Cc1cc(F)c(CNC(=O)[C@@H]2C[C@@H](O)CN2C(=O)[C@@H](NC(=O)N2CC3(CC(N4CCC(c5cnc(N6CCc7[nH]c8nnc(-c9ccccc9O)cc8c7[C@H]6C)nc5)CC4)C3)C2)C(C)(C)C)cc1F [I-403]	> 90%	10 to 50 nM	70 to 90%	> 100 nM	70 to 90%	10 to 100 nM	C (C (10-100 fold))
C#Cc1ccc(CNC(=O)[C@@H]2C[C@@H](O)CN2C(=O)[C@@H](NC(=O)N2CC3(CC(CN4CCC(c5cnc(N6CCc7[nH]c8nnc(-c9ccccc9O)cc8c7[C@H]6C)nc5)CC4)C3)C2)C(C)(C)C)cc1 [I-410]	> 90%	10 to 50 nM	70 to 90%	> 100 nM	70 to 90%	1 to 10 nM	C (C (10-100 fold))
C#Cc1ccc(CNC(=O)[C@@H]2C[C@@H](O)CN2C(=O)[C@@H](NC(=O)N2CC3(CC(CCN4CCC(c5cnc(N6CCc7[nH]c8nnc(-c9ccccc9O)cc8c7[C@H]6C)nc5)CC4)C3)C2)C(C)(C)C)cc1 [I-416]	> 90%	10 to 50 nM	> 90%	10 to 100 nM	> 90%	1 to 10 nM	C (C (10-100 fold))
